Values of other authors as cited in patent US6747011B1, “Antitumor drugs and methods” (A.P. Group, Inc., priority 2003, dated 2004).

Details: alkaline and physiological conditions

In the case of `COC[C@@H](C[C@H]1O[C@@](O)([C@H](O)[C@@H]2C[C@H](OC)[C@@H](O)CC/C=C(C)/C=C/[C@@H](O[C@@H]3O[C@@H](C)[C@H](OC)[C@@H](O)[C@@H]3O)[C@H](C)/C=C(C)/C=C(C)/C=C(\C)C(=O)O2)[C@H](C)[C@@H](O)[C@H]1C)OC1C[C@](C)(O)[C@@H](O[C@H]2C[C@@H](OC)[C@H](O)[C@@H](C)O2)[C@H](C)O1` (stereo partly shown) [Apoptolidin], the “stability, isomerization to isoapoptolidin” value is given as “unstable under alkaline and physiological conditions and readily isomerizes to isoapoptolidin”.
